Laboratory results from US20250032388A1, “PERSONAL CARE COMPOSITIONS FOR SENSITIVE SKIN AND METHODS OF USE” (Galderma Holding SA, priority 2022, published 2025).

Tested on: NADPH oxidase
Assay: NADPH-oxidase activity in pollution-exposed fibroblasts (Example 6)
Assay type: cell-based, human
Protocol: Method: Cells are incubated for 30 minutes with the test elements (either pollutant or Composition A). NADPH oxidase activity is determined immediately using chemioluminescence. Conditions: Untreated and unexposed to pollution, Untreated and exposed to pollution and Treated with personal care composition and exposed to pollution. As a comparison to the personal care composition, niacinamide was tested at low concentration (“niacinamide (low)”) and high concentration (“niacinamide (high)”) in DMSO. (The high niacinamide concentration was 6.67 times the low niacinamide concentration.) Composition B was diluted until its niacinamide concentration was the same as the niacinamide (low) concentration. The cells used in the study were human primary fibroblasts originating from a healthy donor. As in Example 5, the pollutant was urban standardized particles composed with metals, polyaromatic hydrocarbons (PAHs), nitro-PAHs, PCBs, chlorinated pesticide, etc., of micrometric diameter. NADPH-oxidase activity and mitochondrial associated membranes (MAMs) were experimentally determined and quantified in the same manner as in Example 5.

NADPH oxidase activity relative to NE-NTC (niacinamide (high) concentration, 6.67 times the low): level below that observed in NE-NTC
Substance: niacinamide
NADPH oxidase activity relative to NE-NTC (niacinamide (low) concentration, Composition B diluted to the same niacinamide concentration): level similar to that observed in the NE-NTC
